Test results as given in patent US20240287172A1, “PROTEIN BINDERS TO IRHOM2 EPITOPES” (SCIRHOM GMBH, priority 2019, published 2024).

What was measured:
[1] = system: PMA-induced release of endogenous TGFα from human PC3 prostate cancer cells; assay: ELISA-based TGFα release assay, PMA-induced, PC3 cells; format: cell-based; conditions: PC-3, PMA 25 ng/ml, 2 hours, recombinant murine antibodies and IgG at 1 μg/ml, Batimastat at 10 μM
Procedure: In brief, on day 1, Nunc black MaxiSorp® 96-well plates (Thermo Fisher Scientific, USA) were coated overnight with 100 μl per well of goat anti-human TGFα capture antibody (provided as part of the DuoSet ELISA kit) at 0.4 μg/ml TBS at 4° C. On day 2, the capture antibody solution was removed and MaxiSorp® plates were blocked with 300 μl per well of TBS, 1% BSA at room temperature for 3 hours. Meanwhile, 100,000 PC3 (European Collection of Authenticated Cell Cultures, UK) cells in 80 μl of normal growth medium were seeded in each well of F-bottom 96-well cell culture plates (Coming, USA) and pre-incubated with 20 μl per well of OptiMEM medium supplemented with Batimastat (BB94, Abcam, UK) at 50 μM as positive control (for a final concentration of 10 μM in the resulting 100 μl sample volume), mouse IgG antibody (Thermo Fisher Scientific, USA) at 5 μg/ml as isotype control (for a final concentration of 1 μg/ml in the resulting 100 μl sample volume) or antibodies of the invention at 5 μg/ml (for a final concentration of 1 μg/ml in the resulting 100 μl sample volume) at 37° C., 5% CO2 for 30 minutes. In case of stimulation controls, 20 μl of OptiMEM medium without test articles were added. […] Using an infinite M1000 (Tecan Group, Switzerland) microplate reader, the fluorescence of each well was collected at an excitation wavelength of 435 nm and an emission wavelength of 555 nm.

[2] = system: LPS-induced release of endogenous TNFα from PBMCs from healthy donors; assay: ELISA-based TNFα release assay, LPS-induced, PBMCs from healthy donors; format: cell-based; conditions: Homo sapiens, PBMC; LPS 50 ng/ml, 2 hours; recombinant murine antibodies and IgG at 1 μg/ml; Batimastat at 10 μM
Procedure: In brief, on day 1, Nunc black MaxiSorp® 96-well plates (Thermo Fisher Scientific, USA) were coated overnight with 100 μl per well of mouse anti-human TNFα capture antibody (provided as part of the DuoSet ELISA kit) at 4 μg/ml TBS at 4° C. On day 2, the capture antibody solution was removed and MaxiSorp® plates were blocked with 300 μl per well of TBS, 1% BSA at room temperature for 3 hours. Meanwhile, 20,000 PBMC from healthy donors (STEMCELL Technologies, Canada) cells in 80 μl of normal growth medium were seeded in each well of Greiner CELLSTAR V-bottom 96-well plates (Thermo Fisher Scientific, USA) and pre-incubated with 20 μl per well of standard growth medium supplemented with Batimastat (BB94, Abcam, UK) at 50 μM as positive control (for a final concentration of 10 μM in the resulting 100 μl sample volume), mouse IgG antibody (Thermo Fisher Scientific, USA) at 5 μg/ml as isotype control (for a final concentration of 1 μg/ml in the resulting 100 μl sample volume) or antibodies of the invention at 5 μg/ml (for a final concentration of 1 μg/ml in the resulting 100 μl sample volume) at 37° C., 5% CO2 for 30 minutes. […] Using an infinite M1000 (Tecan Group, Switzerland) microplate reader, the fluorescence of each well was collected at an excitation wavelength of 435 nm and an emission wavelength of 555 nm.

Compound: CNC(=O)[C@H](Cc1ccccc1)NC(=O)[C@H](CC(C)C)[C@H](CSc1cccs1)C(=O)NO [Batimastat]
- inhibition at 10 µM [1]: 99.1%
- inhibition at 10 µM [2]: 99.6%
